Data: PMC5578999, “Novel quinolone chalcones targeting colchicine-binding pocket kill multidrug-resistant cancer cells by inhibiting tubulin activity and MRP1 function” (Scientific Reports, 2017)

Columns and labels:
Test in all cases: NCI-60 SRB screen
Format in all cases: cell-based
HOP-92 = system: HOP-92
Description: (§1) Supplementary Figure l egend
(§2) 10μ M of CTR-20 was used to examine the drug’s efficac y against the NC I-60 cancer cell li nes including: six leukemia cell lines, nine non- small cell lung cancer cell lines, seven color ect al cancer cell lines, six CNS cancer cell lines, nine melanoma cell lines, seven ovari an can cer cell lines, seven ren al can cer cell lines, two prostate cancer cell lines and six breast cancer cell lines. The scr eenin g was car r ied out b y the US National Cancer Institute (NC I) us i n g a sulforhodamine B (SRB) colorimetric assay. […]
(§3) out by the NC I using five different doses of CTR -20.

HL-60(TB) = system: HL-60(TB)
Description: as §1, §2, §3

SR = system: SR
Description: as §1, §2, §3

T-47D = system: T-47D
Description: as §1, §2, §3

HCC-2998 = system: HCC-2998
Description: as §1, §2, §3

EKVX = system: EKVX
Description: as §1, §2, §3

OVCAR-8 = system: OVCAR-8
Description: as §1, §2, §3

UACC-62 = system: UACC-62
Description: as §1, §2, §3

SK-MEL-2 = system: SK-MEL-2
Description: as §1, §2, §3

SF-295 = system: SF-295
Description: as §1, §2, §3

NCI-H226 = system: NCI-H226
Description: as §1, §2, §3

NCI-H460 = system: NCI-H460
Description: as §1, §2, §3

[1] = Homo sapiens, read-out: LC50 (the source's name)

COc1ccc2[nH]c(=O)c(/C=C/C(=O)c3ccccc3OC)cc2c1 [CTR-20, (E)-6-Methoxy-3-(3-(2-methoxyphenyl)-3-oxoprop-1-enyl) quinolin-2(1H)-one]
Log10GI50 (HOP-92): -5.80 Molar
Log10LC50 (HOP-92): -4.57 Molar
Log10TGI (HOP-92): -5.21 Molar
TGI (HOP-92): 6.17E-6 Molar
Growth Percent (HOP-92; 1.00E-5 Molar): -11.97%
GI50 (HOP-92; Homo sapiens): 1570 nM
LC50 (HOP-92; Homo sapiens): 27 µM
Percent Growth (HOP-92; Log10 Concentration -4.0): -92%
Percent Growth (HOP-92; Log10 Concentration -5.0): -18%
Percent Growth (HOP-92; Log10 Concentration -6.0): 67%
Percent Growth (HOP-92; Log10 Concentration -7.0): 111%
Percent Growth (HOP-92; Log10 Concentration -8.0): 107%
Log10GI50 (HL-60(TB)): -6.69 Molar
Log10LC50 (HL-60(TB)): > -4.00 Molar
Log10TGI (HL-60(TB)): -6.05 Molar
TGI (HL-60(TB)): 8.83E-7 Molar
Growth Percent (HL-60(TB); 1.00E-5 Molar): -2.46%
GI50 (HL-60(TB); Homo sapiens): 206 nM
CC50 (HL-60(TB); [1]): > 100 µM
Percent Growth (HL-60(TB); Log10 Concentration -4.0): -37%
Percent Growth (HL-60(TB); Log10 Concentration -5.0): -12%
Percent Growth (HL-60(TB); Log10 Concentration -6.0): -4%
Percent Growth (HL-60(TB); Log10 Concentration -7.0): 75%
Percent Growth (HL-60(TB); Log10 Concentration -8.0): 97%
Log10GI50 (SR): -7.18 Molar
Log10LC50 (SR): > -4.00 Molar
Log10TGI (SR): -4.99 Molar
TGI (SR): 1.03E-5 Molar
Growth Percent (SR; 1.00E-5 Molar): 2.69%
GI50 (SR; Homo sapiens): 65.6 nM
LC50 (50% lethal concentration) (SR; Homo sapiens): > 100 µM
Percent Growth (SR; Log10 Concentration -4.0): -13%
Percent Growth (SR; Log10 Concentration -6.0): 21%
Percent Growth (SR; Log10 Concentration -7.0): 41%
Percent Growth (SR; Log10 Concentration -8.0): 92%
Log10GI50 (T-47D): -5.98 Molar
Log10LC50 (T-47D): -4.32 Molar
Log10TGI (T-47D): -4.93 Molar
TGI (T-47D): 1.18E-5 Molar
Growth Percent (T-47D; 1.00E-5 Molar): -2.02%
GI50 (T-47D; Homo sapiens, T47D): 1060 nM
CC50 (T-47D; Homo sapiens, T47D, read-out: LC50 (the source's name)): 47.9 µM
Percent Growth (T-47D; Log10 Concentration -4.0): -76%
Percent Growth (T-47D; Log10 Concentration -5.0): 6%
Percent Growth (T-47D; Log10 Concentration -6.0): 51%
Percent Growth (T-47D; Log10 Concentration -7.0): 90%
Percent Growth (T-47D; Log10 Concentration -8.0): 84%
Log10GI50 (HCC-2998): -5.80 Molar
Log10LC50 (HCC-2998): -5.23 Molar
Log10TGI (HCC-2998): -5.52 Molar
TGI (HCC-2998): 3.03E-6 Molar
Growth Percent (HCC-2998; 1.00E-5 Molar): 23.11%
GI50 (HCC-2998; Homo sapiens): 1570 nM
CC50 (HCC-2998; [1]): 5.85 µM
Percent Growth (HCC-2998; Log10 Concentration -4.0): -91%
Percent Growth (HCC-2998; Log10 Concentration -5.0): -91%
Percent Growth (HCC-2998; Log10 Concentration -6.0): 84%
Percent Growth (HCC-2998; Log10 Concentration -7.0): 97%
Percent Growth (HCC-2998; Log10 Concentration -8.0): 99%
Log10GI50 (EKVX): -5.69 Molar
Log10LC50 (EKVX): -4.25 Molar
Log10TGI (EKVX): -4.98 Molar
TGI (EKVX): 1.05E-5 Molar
Growth Percent (EKVX; 1.00E-5 Molar): 37.76%
GI50 (EKVX; Homo sapiens): 2050 nM
CC50 (EKVX; [1]): 55.8 µM
Percent Growth (EKVX; Log10 Concentration -4.0): -67%
Percent Growth (EKVX; Log10 Concentration -5.0): 1%
Percent Growth (EKVX; Log10 Concentration -6.0): 72%
Percent Growth (EKVX; Log10 Concentration -7.0): 91%
Percent Growth (EKVX; Log10 Concentration -8.0): 86%
Log10GI50 (OVCAR-8): -6.06 Molar
Log10LC50 (OVCAR-8): -4.46 Molar
Log10TGI (OVCAR-8): -4.94 Molar
TGI (OVCAR-8): 1.16E-5 Molar
Growth Percent (OVCAR-8; 1.00E-5 Molar): 1.18%
GI50 (OVCAR-8; Homo sapiens): 874 nM
CC50 (OVCAR-8; [1]): 34.4 µM
Percent Growth (OVCAR-8; Log10 Concentration -4.0): -99%
Percent Growth (OVCAR-8; Log10 Concentration -5.0): 7%
Percent Growth (OVCAR-8; Log10 Concentration -6.0): 46%
Percent Growth (OVCAR-8; Log10 Concentration -7.0): 109%
Percent Growth (OVCAR-8; Log10 Concentration -8.0): 113%
Log10GI50 (UACC-62): -6.32 Molar
Log10LC50 (UACC-62): -4.75 Molar
Log10TGI (UACC-62): -5.53 Molar
TGI (UACC-62): 2.97E-6 Molar
Growth Percent (UACC-62; 1.00E-5 Molar): 25.73%
GI50 (UACC-62; Homo sapiens): 478 nM
CC50 (UACC-62; [1]): 17.9 µM
Percent Growth (UACC-62; Log10 Concentration -4.0): -95%
Percent Growth (UACC-62; Log10 Concentration -5.0): -35%
Percent Growth (UACC-62; Log10 Concentration -6.0): 31%
Percent Growth (UACC-62; Log10 Concentration -7.0): 90%
Percent Growth (UACC-62; Log10 Concentration -8.0): 94%
Log10GI50 (SK-MEL-2): -6.16 Molar
Log10LC50 (SK-MEL-2): -4.54 Molar
Log10TGI (SK-MEL-2): -5.36 Molar
TGI (SK-MEL-2): 4.39E-6 Molar
Growth Percent (SK-MEL-2; 1.00E-5 Molar): -2.52%
GI50 (SK-MEL-2; Homo sapiens): 694 nM
CC50 (SK-MEL-2; [1]): 29.2 µM
Percent Growth (SK-MEL-2; Log10 Concentration -4.0): -81%
Percent Growth (SK-MEL-2; Log10 Concentration -5.0): -23%
Percent Growth (SK-MEL-2; Log10 Concentration -6.0): 41%
Percent Growth (SK-MEL-2; Log10 Concentration -7.0): 99%
Percent Growth (SK-MEL-2; Log10 Concentration -8.0): 95%
Log10GI50 (SF-295): -6.28 Molar
Log10LC50 (SF-295): -4.42 Molar
Log10TGI (SF-295): -4.92 Molar
TGI (SF-295): 1.21E-5 Molar
Growth Percent (SF-295; 1.00E-5 Molar): 8.29%
GI50 (SF-295; Homo sapiens): 529 nM
CC50 (SF-295; [1]): 37.6 µM
Percent Growth (SF-295; Log10 Concentration -4.0): -93%
Percent Growth (SF-295; Log10 Concentration -5.0): 8%
Percent Growth (SF-295; Log10 Concentration -6.0): 33%
Percent Growth (SF-295; Log10 Concentration -7.0): 93%
Percent Growth (SF-295; Log10 Concentration -8.0): 89%
Log10GI50 (NCI-H226): -5.48 Molar
Log10LC50 (NCI-H226): > -4.00 Molar
Log10TGI (NCI-H226): -4.73 Molar
TGI (NCI-H226): 1.85E-5 Molar
Growth Percent (NCI-H226; 1.00E-5 Molar): 38.93%
GI50 (NCI-H226; Homo sapiens): 3.34 µM
CC50 (NCI-H226; [1]): > 100 µM
Percent Growth (NCI-H226; Log10 Concentration -4.0): -47%
Percent Growth (NCI-H226; Log10 Concentration -5.0): 17%
Percent Growth (NCI-H226; Log10 Concentration -6.0): 86%
Percent Growth (NCI-H226; Log10 Concentration -7.0): 99%
Percent Growth (NCI-H226; Log10 Concentration -8.0): 96%
Log10GI50 (NCI-H460): -6.42 Molar
Log10LC50 (NCI-H460): -4.44 Molar
Log10TGI (NCI-H460): -5.65 Molar
TGI (NCI-H460): 2.25E-6 Molar
Growth Percent (NCI-H460; 1.00E-5 Molar): 1.79%
GI50 (NCI-H460; Homo sapiens): 380 nM
CC50 (NCI-H460; [1]): 36.7 µM
Percent Growth (NCI-H460; Log10 Concentration -4.0): -71%
Percent Growth (NCI-H460; Log10 Concentration -5.0): -22%
Percent Growth (NCI-H460; Log10 Concentration -6.0): 12%
Percent Growth (NCI-H460; Log10 Concentration -7.0): 102%
Percent Growth (NCI-H460; Log10 Concentration -8.0): 105%
